The results in this text go back to the OPERA property sets (Mansouri et al. 2018).

In brackets after ≈: the same amount, converted by molar mass.

Conditions in the first data set: not given
By logP is commonly meant a log measure of how a compound divides between an organic and an aqueous phase. Higher therefore signals higher lipophilicity. `c1ccc2c(c1)Oc1ccccc1O2` came in with a logP of 4.3.

As for `Clc1c(Cl)c(Cl)c2c(c1Cl)Oc1c(Cl)c(Cl)c(Cl)c(Cl)c1O2`, the lipophilicity (logP) is 8.2.

For the compound `Clc1cc2c(c(Cl)c1Cl)Oc1c(Cl)c(Cl)c(Cl)c(Cl)c1O2`, the logP was found to be 8.2.

In turn, `Clc1cc2c(cc1Cl)Oc1cc(Cl)c(Cl)cc1O2` registered a logP of 6.8.

Turning to `Clc1cccc2c1Oc1ccccc1O2`, the logP stood at 4.75.

`Clc1ccc2c(c1)Oc1c(Cl)c(Cl)c(Cl)c(Cl)c1O2` showed a logP of 7.4.

`Clc1c(Cl)c(Cl)c2c(c1Cl)Oc1ccccc1O2` yielded a logP of 6.6.

`Clc1ccc2c(c1)Oc1ccccc1O2` gave a log partition coefficient (logP) of 5.

Take `Clc1ccc2c(c1)Oc1ccc(Cl)cc1O2`: the logP came out at 5.75.

The compound `Clc1cc(Cl)c2c(c1Cl)Oc1ccccc1O2` registered a log partition coefficient (logP) of 6.35.

Turning to `Clc1cc2c(cc1Cl)Oc1c(Cl)c(Cl)c(Cl)c(Cl)c1O2`, the logP was determined as 7.8.

Staying with this data set, now noted: 25 °C.
Broadly, the solubility is the concentration that dissolves in the medium under given conditions. As for `Clc1cc2c(cc1Cl)Oc1cc(Cl)c(Cl)cc1O2`, the solubility is 0.621 nM (≈ 0.2 ng/mL).

On to `Clc1c(Cl)c(Cl)c2c(c1Cl)Oc1ccccc1O2`, for which the solubility turned out to be 1.96 nM (≈ 0.63 ng/mL). This solubility is about 3.2-fold higher than that of the compound before.
